Measurements from US20230201238A1, “THERAPEUTIC AGENT FOR AN RNA VIRUS INFECTION COMPRISING A COMBINATION OF A PYRAZINE DERIVATIVE AND A THIOPURINE DERIVATIVE” (priority 2020, published 2023).
Like-named read-outs stand apart in the source and are kept apart here.

Tests used:
[1] = system: influenza virus (PR/8/34 (H1N1)); format: cell-based; conditions: for IC50: Vero cells, 2 days, read-out: The 50% CPE inhibitory concentration of T-705
Vero cells = conditions: with T-705

Row | SMILES | CPE inhibitory effect ([1]; 6-methylmercaptopurine riboside 10 μM alone) | Effect on intracellular T-705RTP amount after T-705 treatment (Vero cells) | IC50 ([1]; T-705 alone (6-methylmercaptopurine 0 μM)) [µM] | 50% CPE inhibitory concentration of T-705 in combination compared to T-705 alone ([1]; in combination with 6-methylmercaptopurine riboside) | IC50 ([1]; with 6-methylmercaptopurine 0.1 μM) [µM] | IC50 ([1]; with 6-methylmercaptopurine 0.3 μM) [µM] | IC50 ([1]; with 6-methylmercaptopurine 1 μM) [µM] | IC50 ([1]; with 6-methylmercaptopurine 3 μM) [µM] | IC50 ([1]; with 6-methylmercaptopurine 10 μM) [µM]
1 | CSc1ncnc2c1ncn2[C@@H]1O[C@H](CO)[C@@H](O)[C@H]1O [6-methylmercaptopurine riboside] | did not show a CPE inhibitory effect | increased |  |  |  |  |  |  | 
2 | NC(=O)c1nc(F)cnc1O [T-705] |  |  | 183 | lower | 89.4 | 48.9 | 30.6 | 21.9 | 20.2
